Assay results taken from the NIST ThermoML archive (doi:10.1016/j.tca.2018.11.020).
± gives the expanded uncertainty stated by the source.

What was measured:
[1] = Molar enthalpy of transition or fusion; conditions: Crystal; Adiabatic calorimetry
[2] = Adiabatic calorimetry
[3] = molar heat capacity at constant pressure; conditions: 101.33 kPa, Vacuum adiabatic calorimetry

CC(C)O [propan-2-ol]
Conditions	Molar enthalpy of transition or fusion [kcal/mol]
[1]	1.27 ± 0.0239

[2]
Conditions	Glass transition temperature [°C]	Triple point temperature [K]
Crystal	–	184.7 ± 0.4
Glass	-156.0 ± 0.4	–

[3]
Conditions	molar heat capacity at constant pressure [J/K/mol]
85 K, Glass	51.12 ± 0.91
90 K, Glass	53.51 ± 0.92
95 K, Glass	56.01 ± 0.92
100 K, Crystal	54.18 ± 0.92
100 K, Glass	58.63 ± 0.92
105 K, Crystal	56.19 ± 0.92
105 K, Glass	61.36 ± 0.92
110 K, Crystal	58.21 ± 0.92
110 K, Glass	64.24 ± 0.92
115 K, Crystal	60.23 ± 0.92
120 K, Crystal	62.27 ± 0.92
120 K, Metastable liquid	103.93 ± 0.93
125 K, Crystal	64.31 ± 0.92
125 K, Metastable liquid	103.76 ± 0.93
130 K, Crystal	66.36 ± 0.92
130 K, Metastable liquid	103.51 ± 0.93
135 K, Crystal	68.41 ± 0.92
135 K, Metastable liquid	103.26 ± 0.93
140 K, Crystal	70.47 ± 0.92
145 K, Crystal	72.55 ± 0.92
150 K, Crystal	74.62 ± 0.92
155 K, Crystal	76.7 ± 0.92
160 K, Crystal	78.79 ± 0.93
165 K, Crystal	80.88 ± 0.93
